Data on 8 compounds can be found in patent US10357460B2, “Particulate comprising a calcium-containing compound and a sugar alcohol” (Takeda Nycomed AS, priority 2004, dated 2019).

The nature of series [1]: Compactability of sugar alcohols compressed alone. Type of series: physicochemical. The conditions noted are these: tablets of sugar alcohol alone; FIG. 19. Here is the method: Tablets comprising sorbitol 110 μm, sorbitol 38 μm, isomalt 27 μm, maltitol, mannitol or xylitol were compressed on an instrumented Fette Exacta 1/F single punch tablet press, only maximum compression force on the upper punch was recorded.
Before the compression of each tablet the punch tips and the die bore were lubricated with a 5% suspension of magnesium stearate in acetone. The acetone was allowed to evaporate before compression of the tablet.
The sugar alcohol was weighed, transferred to the die bore and then compressed, see Table 14. Immediately after ejection the tablet was tested for crushing strength.

Series [2] is described as follows: Crushing strength versus tablet compression force, calcium carbonate/sugar alcohol tablets (Example 11). The conditions noted are these: for tendency of capping: observed during the experiment.
Text: In all the below described experiments 1-24 the amount of calcium salt is 76.22% w/w of the final tablet mass, the amount of sugar alcohol is 23.78% w/w, with the exception of experiments 4 and 20 at which the 23.78% w/w of sugar alcohol is replaced with 14.63% w/w of sugar alcohol and 9.15% w/w of Precirol.
The calcium salt and the sugar alcohol are mixed in a total amount of 6 kg in a Fielder high shear mixer. The sugar alcohol is sieved through sieve size 300 μm prior to mixing. The mixing of 6 kg is done twice and the total yield of 12 kg is mixed in a planetary mixer. Thereafter, the mixtures are roller compacted (intra granular sugar alcohol) using the following values for GW, F, RS and screen size. (For the experiments 25-26 the sugar alcohol is admixed by hand after roller compaction has been carried out (extra granular sugar alcohol)).
The compactate is admixed with 0.34% w/w of magnesium stearate.
Compression is carried out on a Fette 1090 using a 18.9 mm×9.4 mm capsule shaped punch design and a theoretical tablet mass of 1683 mg. […] The crushing strength has been measured by use of a Schleuniger Autotest 4 and n=20.
The nature of series [3]: Tablet hardness as a function of compression pressure (Schleuniger AT4). It is filed as physicochemical. The source says: Sorbitol was lump breaked in a Cone Mill (Quadro U20) and afterwards premixed with Calcium Carbonate in a high-shear mixer (Diosna P250 at low impeller speed and no chopper) for 60 sec.
The premix was granulated on a roller compactor (Gerteis 3W-Polygran), and the compacted granules was then mixed with Povidone K30, Aspartame, D3 Vitamin and Flavour in a high-shear mixer (Diosna P250 at low impeller speed and no chopper) for 60 sec. Finally, lubrication with Magnesium Stearate was done a high-shear mixer (Diosna P250 at low impeller speed and no chopper) for 25 sec.
The roller compaction was based on a setup with knurled rollers and control. The key set up parameters are: Gap Width (GW), Force (F), Roller Speed (RS) and screen size.
Tablet weight was approximately 1,750 mg. All in-process weight and hardness data are obtained using a Schleuniger AT4.

The next series deals with treated patients. To be noted: annual injections of 150.000-300.000 IU; cited from earlier work.
For another series, the system named is pre-menopausal women. The conditions noted are these: 1200 mg of calcium supplements daily, three menstrual cycles; placebo 48%; cited from earlier work.

Take `OC[C@@H](O)[C@H](O)[C@@H](O)CO` [xylitol, Xylitol]: the “compactability (slope of compression force versus crushing strength)” value in series [1] is “very poor compactability”. Also, the tendency of capping result in series [2] is “tendency of capping”. Regarding Isomalt, in series [1], the “compactability (slope of compression force versus crushing strength)” value is recorded as “Sorbitol is followed by isomalt”. On to `OC[C@@H](O)[C@@H](O)[C@H](O)[C@@H](O)CO` [sorbitol, Sorbitol], for which the “compactability (slope of compression force versus crushing strength)” value in series [1] was “best compactability”. Also, the tablet hardness result in series [3] (decreasing size of sorbitol (110, 38, 11 μm), fixed compression force, 14 mm round tablets, FIG. 4) is recorded as “markedly increased tablet hardness”; in series [3] (presence of sorbitol compared to tablets consisting solely of calcium carbonate, FIG. 1), “increased tablet hardness values”.

As to `OC[C@@H](O)[C@@H](O)[C@H](O)[C@H](O)CO` [mannitol, Mannitol], the “compactability (slope of compression force versus crushing strength)” value in series [1] is reported as “very poor compactability”. The tendency of capping entry in series [2] is reported as “tendency of capping”. With `OC[C@@H](O)[C@@H](O[C@H]1O[C@H](CO)[C@@H](O)[C@H](O)[C@H]1O)[C@H](O)[C@@H](O)CO` [maltitol, Maltitol], the “compactability (slope of compression force versus crushing strength)” value in series [1] is recorded as “very poor compactability”. Besides, the tendency of capping result in series [2] is given as “tendency of capping”. For the same compound, in series [3] (maltitol versus sorbitol 38 μm as binder, capsule shaped 9.4 mm*18.9 mm, FIG. 7), the “binding properties (tablet hardness)” value is “does not impart as good binding properties”. As to vitamin D, in the series on treated patients, the overall fracture rate result is reported as “significant reduction” and the “rate of hip fracture” value is given as “not in the rate of hip fracture”. For `[Ca]` [calcium], the “women with PMS related symptoms” value in the series with pre-menopausal women is on record as 30%. In the case of Glycerol distearat Type I EP [Precirol], the crushing strength result in series [2] (addition of Precirol to xylitol 34 μm, FIG. 11) was “increases the crushing strength”.
